Data as given in patent publication US20260000669A1, “TREATMENT REGIMEN FOR AUTOIMMUNE DISEASES AND INFLAMMATORY DISEASES” (Merck Patent GmbH, priority 2022, published 2026).
Like-named read-outs stand apart in the source and are kept apart here.

Tests used:
SARS-CoV-2 [1] = format: in vivo, human
[2] = relapsing MS patients; cited from earlier work
[3] = mouse model of RA, orally administered; cited from earlier work
[4] = mouse model of SLE, orally administered; cited from earlier work
SARS-CoV-2 [5] = test system: SARS-CoV-2
Excerpt: The clinical study NCT02975349 is a phase II, randomized, placebo-controlled trial to evaluate the safety and efficacy of evobrutinib (M2951) in subjects with relapsing multiple sclerosis (RMS). […] The study was composed of a screening period of 4 weeks, a double blinded treatment period of 48 weeks, with an optional open-label extension (OLE) period of 312 weeks, and a safety follow-up period of 4 weeks post-treatment.
Patients were randomized 1:1:1:1: to receive placebo, oral evobrutinib 25 mg once-daily (QD), 75 mg QD, 75 mg twice-daily (BID), or open-label dimethyl fumarate. Patients who received placebo during the first 24 weeks of the DBP, were switched to evobrutinib 25 mg QD until the end of the double-blind period (i.e., 48 weeks). Patients participating in the OLE after the DBP received EVO 75 mg QD and then, after a mean of 49.8 weeks, switched to EVO 75 mg BID.
For the analysis of pre-vaccination, post-vaccination and post-booster vaccination S1/S2 IgG antibody levels, plasma samples were selected according to the following criteria: • Pre-vaccination: sample taken at the last doctor's visit of the patient before the date when the first COVID-19 vaccine dose was administered • post-vaccination: sample taken at the first doctor's visit of the patient that took place at least 28 days after a complete vaccination cycle (as defined by the manufacturer) was administered (for example, in case of the mRNA COVID vaccine of VAC-OLE I, at least 28 days after the date when the second dose of the mRNA COVID vaccine was administered) • post-booster vaccination: sample taken in the first doctor's visit of the patients that took place at least 7 days after the date when the booster vaccination was administered
A total of 24 patients, fulfilling the following criteria, were included in the analysis and constituted the VAC-OLE I analysis set: • Subjects who were in the OLE and received evobrutinib 75 mg BID, and • had 2 doses of mRNA vaccine against COVID reported as concomitant medication, and • signed the Informed Consent for the vaccination analysis.
Subjects were administered the two doses of vaccine during the course of the study based on investigator's judgement. Of the 24 vaccinated patients: • 20 received the mRNA vaccine by BioNTech/Pfizer • 4 patients received the mRNA vaccine by Moderna.
SARS-CoV-2 antibody levels were determined using the LIAISON® SARS-CoV-2 S1/S2 IgG assay (DiaSorin, Inc); an indirect sandwich chemiluminescent immunoassay that qualitatively detects IgG antibodies to SARS-CoV-2. […] Briefly, magnetic particles coated with recombinant S1 and S2 SARS-CoV-2 proteins were incubated with patients' plasma samples, calibrator samples or control samples. After washing away unbound material, a mouse monoclonal anti-human IgG antibody linked to an isoluminol derivative was added. Following another incubation and wash step, the starter reagents were added triggering a flash chemiluminescence reaction. The resulting light signal, representative of the amount of bound isoluminol-antibody conjugate, was measured by a photo multiplier as relative light units (RLU) and was indicative of the presence of IgG S1/S2 antibodies to SARS-CoV-2 virus. Test results are assessed qualitatively as positive or negative. The lower limit of quantification (LLoQ) in this assay was 3.8 AU/mL. In line with FDA guidance, values below a cutoff of 15 AU/mL (i.e. about 4× above the LLoQ for the assay) were considered as a negative readout.
The primary endpoint of this study was defined as fold changes in levels of S1/S2 IgG antibodies from pre- to post-vaccination.

SARS-CoV-2 [6] = conditions: MS patients, 2 to 4 weeks after second dose of mRNA COVID-19 vaccine; cited from earlier work
[7] = all participants (N=45), VAC-OLE II, evobrutinib 75 mg BID
[8] = booster subgroup (N=14), mRNA booster, VAC-OLE II
[9] = participants that received mRNA vaccines (37), VAC-OLE II
[10] = participants that received non-mRNA vaccines (8), VAC-OLE II
[11] = seronegative subgroup (N=32), VAC-OLE II
[12] = seropositive subgroup (N=13), VAC-OLE II
[13] = overall VAC-OLE I population (N=24), evobrutinib 75 mg BID
[14] = seronegative subgroup (19 patients), VAC-OLE I
[15] = seropositive subgroup (5 patients), VAC-OLE I

With C=CC(=O)N1CCC(CNc2ncnc(N)c2-c2ccc(Oc3ccccc3)cc2)CC1 [evobrutinib, 1-[4-({[6-amino-5-(4-phenoxyphenyl)pyrimidin-4-yl]amino}methyl)piperidin-1-yl]prop-2-en-1-one] the “participants with >30-fold induction of S1/S2 IgG antibody levels” value (SARS-CoV-2 [1]; 21 of 45 participants, VAC-OLE II) was 47%, the “participants with >10-fold increase of S1/S2 IgG antibody levels” value (SARS-CoV-2 [1]; 38 of 45 participants, VAC-OLE II) was 84% and the “S1/S2 IgG antibody geometric mean post-vaccination” value (SARS-CoV-2 [1]; <8 weeks subgroup, VAC-OLE II) was 672 AU/mL. The “participants with >30-fold change in antibody levels after vaccination” value (SARS-CoV-2 [1]; >8 and ≤12 weeks subgroup (7 of 19), VAC-OLE II) was 37%, the “S1/S2 IgG antibody geometric mean post-vaccination” value (SARS-CoV-2 [1]; >8 week to ≤12 weeks subgroup, VAC-OLE II) was 166 AU/mL and the “participants with >30-fold change in antibody levels after vaccination” value (SARS-CoV-2 [1]; >12 weeks group (2/13), VAC-OLE II) was 15%. For the same compound, the “S1/S2 IgG antibody geometric mean post-vaccination” value (SARS-CoV-2 [1]; >12 weeks subgroup, VAC-OLE II) was 142 AU/mL, the “fold increase in anti-COVID-19 antibody levels pre- to post-vaccination” value (SARS-CoV-2 [1]; all participants (N=45), VAC-OLE II) was 45 fold and the “S1/S2 IgG antibody level after a complete vaccination cycle, geometric mean” value (SARS-CoV-2 [1]; [7]) was 237.8 AU/mL. The “S1/S2 IgG antibody level pre-vaccination, geometric mean” value (SARS-CoV-2 [1]; [7]) was 9.0 AU/mL, the “fold change in the geometric mean of S1/S2 IgG antibody” value (“fold change in the geometric mean” for short) (SARS-CoV-2 [1]; assessed >8 week to ≤12 weeks after complete vaccination cycle, VAC-OLE II) was 17.7 and the “fold change in the geometric mean” value (SARS-CoV-2 [1]; assessed >12 weeks after complete vaccination cycle, VAC-OLE II) was 17.8. The “fold change in the geometric mean” value (SARS-CoV-2 [1]; assessed ≤8 weeks after complete vaccination cycle, VAC-OLE II) was 69.7, the “S1/S2 IgG antibody levels after booster vaccination compared to levels after the complete vaccination cycle” value (SARS-CoV-2 [1]; booster subgroup (N=14), VAC-OLE II) was “Higher” and the “geometric mean fold change from post-vaccination to post-booster” value (SARS-CoV-2 [1]; [8]) was 6.3. The “geometric mean fold change from pre-vaccination to post-booster” value (SARS-CoV-2 [1]; [8]) was 214, the “response to COVID vaccination compared with individuals not under BTK inhibitor treatment” value (SARS-CoV-2 [1]; conclusion of Example 2, comparison with published data) was “comparably to healthy individuals” and the “post-vaccination S1/S2 IgG antibody geometric mean” value (SARS-CoV-2 [1]; [9]) was 247.7 AU/mL. For the same compound, the “pre-vaccination S1/S2 IgG antibody geometric mean” value (SARS-CoV-2 [1]; [9]) was 8.5 AU/mL, the “post-vaccination S1/S2 IgG antibody geometric mean” value (SARS-CoV-2 [1]; [10]) was 197.1 AU/mL and the “pre-vaccination S1/S2 IgG antibody geometric mean” value (SARS-CoV-2 [1]; [10]) was 12.1 AU/mL. For the same compound, the “S1/S2 IgG antibody post-vaccination geometric mean level” value (SARS-CoV-2 [1]; [11]) was 133.6 AU/mL, the “S1/S2 IgG antibody values prior to vaccination (majority of participants, lower limit of quantification)” value (SARS-CoV-2 [1]; [11]) was 3.8 AU/mL and the “S1/S2 IgG antibody geometric mean level after a complete vaccination cycle” value (SARS-CoV-2 [1]; [12]) was 984.4 AU/mL. The “S1/S2 IgG antibody pre-vaccination geometric mean level” value (SARS-CoV-2 [1]; [12]) was 55.5 AU/mL, the “results in RMS phase II trials” value [2] was “positive results” and the “efficacy (reduction of disease severity and histological damage)” value [3] was “good efficacy”. For the same compound, the “efficacy (reduction of disease severity and histological damage)” value [4] was “good efficacy”, the “S1/S2 IgG antibody level, geometric mean, after second vaccination” value (SARS-CoV-2 [5]; [13]) was 209.1 AU/mL and the “S1/S2 IgG antibody level, geometric mean, before first vaccination” value (SARS-CoV-2 [5]; [13]) was 6.7 AU/mL. For the same compound, the “S1/S2 IgG antibody level post-vaccination, geometric mean” value (SARS-CoV-2 [5]; sample collected >12 weeks after second vaccination, VAC-OLE I) was 74, the “S1/S2 IgG antibody level post-vaccination, geometric mean” value (SARS-CoV-2 [5]; sample collected between 8 and 12 weeks after second dose, VAC-OLE I) was 264 and the “S1/S2 IgG antibody level post-vaccination, geometric mean” value (SARS-CoV-2 [5]; sample collected less or equal to 8 weeks after second vaccination, VAC-OLE I) was 383 AU/mL. For the same compound, the “geometric mean fold change of S1/S2 IgG antibody levels” value (SARS-CoV-2 [5]; seronegative patients, VAC-OLE I) was 36.0, the “S1/S2 IgG antibody level prior to vaccination (majority of patients, lower limit of quantification)” value (SARS-CoV-2 [5]; [14]) was “around 3.8 AU/ml” and the “S1/S2 IgG antibody level, geometric mean post-vaccination” value (SARS-CoV-2 [5]; [14]) was 155.8 AU/mL. For the same compound, the “geometric mean fold change of S1/S2 IgG antibody levels” value (SARS-CoV-2 [5]; seropositive patients, VAC-OLE I) was 18.0, the “S1/S2 IgG antibody level, geometric mean after the second vaccination” value (SARS-CoV-2 [5]; [15]) was 639.6 AU/mL and the “S1/S2 IgG antibody level, geometric mean pre-vaccination” value (SARS-CoV-2 [5]; [15]) was 35.5 AU/mL.
In the case of C=CC(=O)N1CCC[C@@H](n2c(=O)n(-c3ccc(Oc4ccccc4)cc3)c3c(N)nccc32)C1 [tolebrutinib, reference compound], the “results in RMS phase II trials” value [2] is listed as “positive results”.
In the case of “ocrelizumab: B and/or T cell receptor directed antibody; a disease modifying treatment for multiple sclerosis”, the “S1/S2 IgG antibody levels” value (SARS-CoV-2 [6]) is given as “very low”.
